Results from publication PMC8151835, “Phosphinotripeptidic Inhibitors of Leucylaminopeptidases” (International Journal of Molecular Sciences, 2021).
Read-outs that look alike come from different tables or passages of the source.

Experiments:
[1] = molecular target: T1, SsLAP (porcine leucine aminopeptidase) (Sus scrofa, UniProt P28839); assay: Inhibition of porcine kidney leucine aminopeptidase, L-Leu-p-nitroanilide hydrolysis, spectrophotometric at 405 nm; type: biochemical; settings: for Ki: Dixon method, substrate L-Leu-p-nitroanilide, 37 °C, pH 8.5, mixture of SR and SS isomers
T1 construct: Leucyl aminopeptidase (SsLAP) was isolated from the porcine kidney; from tissue; host or cells: porcine kidney
T1 sequence (P28839 1-519): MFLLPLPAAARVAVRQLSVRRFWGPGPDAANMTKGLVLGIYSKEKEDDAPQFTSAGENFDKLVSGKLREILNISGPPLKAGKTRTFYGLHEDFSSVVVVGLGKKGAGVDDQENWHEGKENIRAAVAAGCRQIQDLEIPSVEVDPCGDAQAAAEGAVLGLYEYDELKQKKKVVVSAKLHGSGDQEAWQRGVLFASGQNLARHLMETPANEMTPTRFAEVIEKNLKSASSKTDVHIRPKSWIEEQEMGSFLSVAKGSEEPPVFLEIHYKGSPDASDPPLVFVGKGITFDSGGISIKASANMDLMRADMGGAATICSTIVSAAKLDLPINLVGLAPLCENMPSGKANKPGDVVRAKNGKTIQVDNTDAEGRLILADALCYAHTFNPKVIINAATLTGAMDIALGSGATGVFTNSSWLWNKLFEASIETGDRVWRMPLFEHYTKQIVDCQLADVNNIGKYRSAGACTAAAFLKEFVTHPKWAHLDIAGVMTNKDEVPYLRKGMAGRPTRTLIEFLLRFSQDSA
Procedure: (§1) The inhibition type, mechanism, and inhibition constants (Ki) were determined using graphical methods (see Figure 3 and Figure 4 and Tables S1 and S2). The inhibition type was determined by the Lineweaver-Burk plot based on the results of the inhibitory effect of the compounds on the hydrolytic activity of L-Leu-p-nitroanilide. […] It should be remembered that inhibitor activity was appointed for the racemic mixtures. All investigated compound 1–9 contains only S isomer in the P2 position, whereas in the P1 position, both R and S isomers were possible. Comparing the obtained activities of the investigated compounds 1–9 toward mammalian and plant aminopeptidases allows us to make some general observations. […] Additionally, SsLAP has better tolerance for the residue in the P1 position, whereas HvLAP prefers hPhe residue in this position.
Leucyl aminopeptidase (SsLAP) was isolated from the porcine kidney modified method described by Spackman and Ledeme. […] KM values correlate well with those given in the works 0.77 mM [58, 59]. The purity of the enzyme was confirmed by electrophoresis.
The enzymatic reaction in the presence of SsLAP was carried out at 37 °C in 7.5 mM TEA-HCl buffer (pH 8.5), containing 5 mM NaCl. The progress of the reaction was monitored spectrophotometrically (UV-VIS Spectrophotometer Cintra 303, GBC Scientific Equipment Ltd., Victoria, Australia) at a wavelength of 405 nm against a control sample containing no enzyme. The attempting mixture contained: Solution of the synthetic substrate L-Leu-p-nitroanilide in DMSO (substrate concentration: 1.5 to 0.2 mM—final concentration), 7.5 mM TEA-HCl buffer (pH 8.5), containing 5 mM NaCl, the solution of the potential inhibitor in reaction buffer (concentration of compound depending on the braking force), and enzyme (0.005 mg of the sample).
(§2) Kinetic constants KM, Vmax, and KI and type of inhibition was determined by methods Lineweaver-Burk, Dixon, Hanes-Woolf, and method half-inhibitory concentration. In the calculation, linearization methods used weighted regression. The values (Ki) given in the tables are the values calculated by the Dixon method. The Ki values calculated with all the above-mentioned methods close to each other. All measurements were made in three-fold repetitions. The graphs show the average values of the three measurements and Sb.

[2] = molecular target: HvLAP (aminopeptidase from barley seeds); assay: Inhibition of barley seed aminopeptidase, L-Leu-p-nitroanilide hydrolysis, spectrophotometric at 405 nm; type: biochemical, Hordeum vulgare; settings: Dixon method; substrate L-Leu-p-nitroanilide; 37 °C, pH 7.5; mixture of SR and SS isomers
Procedure: as §1
The aminopeptidase from barley seeds (HvLAP) was isolated and purified according to the procedure described by Oszywa. […] The purity of the enzyme was confirmed by electrophoresis.
The enzymatic reaction in the presence of aminopeptidase from barley seeds (HvLAP) was carried out at 37 °C in 50 mM Tris-HCl buffer (pH 7.5), containing 50 mM NaCl, and 10 mM 2-mercaptoethanol. The progress of the reaction was monitored spectrophotometrically (UV-VIS Spectrophotometer Cintra 303, GBC Scientific Equipment Ltd., Victoria, Australia) at a wavelength of 405 nm against a control sample containing no enzyme. The attempting mixture contained: Solution of the synthetic substrate L-Leu-p-nitroanilide in DMSO (substrate concentration: 1.5 to 0.2 mM—final concentration), 50 mM Tris-HCl buffer (pH 7.5), containing 50 mM NaCl, and 10 mM 2-mercaptoethanol, the solution of the potential inhibitor in reaction buffer (concentration of compound depending on the braking force), and enzyme (0.028 mg of the sample).
as §2

[3] = molecular target: T1, SsLAP (porcine leucine aminopeptidase); design: method as in PMID 2568128, PMID 7126535; settings: read-out: KM given in the works; cited from earlier work
[4] = test system: HvLAP (aminopeptidase from barley seeds); design: method as in PMID 23434924, doi:10.1007/s11738-015-1789-8; settings: read-out: KM of the isolated enzyme on the synthetic substrate; cited from earlier work

Structure (SMILES)	Ki [1]	Ki [2]	melting point	inhibits SsLAP stronger than HvLAP (selectivity) ([1]; SsLAP over HvLAP)	Km ([1]; SsLAP isolated from porcine kidney, read-out: KM of the isolated enzyme on the synthetic substrate)	Km [3]	Km [4]
COC(=O)CCP(=O)(O)C(CCc1ccccc1)NC(=O)[C@@H](N)CCSC (stereo partly drawn) [Compound 1, Methyl 3-[(1-((S)-2-amino-4-(methylthio)butanamido)-3-phenylpropyl)phosphinyl]propanoate]	532 ± 46 µM	38 ± 9 µM	161 to 164 °C	–	–	–	–
COC(=O)CCP(=O)(O)C(CC(C)C)NC(=O)[C@@H](N)CCSC (stereo partly drawn) [Compound 2, Methyl 3-[(1-((S)-2-amino-4-(methylthio)butanamido)-3-methylbutyl)phosphinyl]propanoate]	1090 ± 73 µM	649 ± 43 µM	183 to 184 °C	–	–	–	–
COC(=O)CCP(=O)(O)C(CC(C)C)NC(=O)[C@@H](N)Cc1ccc(-c2ccccc2)cc1 (stereo partly shown) [Compound 7]	130 ± 14 µM	1300 ± 84 µM	150 to 152 °C	~10 times	–	–	–
COC(=O)CCP(=O)(O)C(CCc1ccccc1)NC(=O)[C@@H](N)Cc1ccc(C(=O)c2ccccc2)cc1 (stereo partly drawn) [Compound 8, Methyl 3-[(1-((S)-2-amino-3-(4-benzoylphenyl)propanamido)-3-phenylpropyl)phosphinyl]-propanoate]	95 ± 9 µM	159 ± 25 µM	134 to 140 °C (dec.)	–	–	–	–

Continued, in another order:

Ki [1]	Ki [2]	melting point	inhibits SsLAP stronger than HvLAP (selectivity) ([1]; SsLAP over HvLAP)	Km ([1]; SsLAP isolated from porcine kidney, read-out: KM of the isolated enzyme on the synthetic substrate)	Structure (SMILES)	Km [3]	Km [4]
14 ± 1 µM	121 ± 19 µM	174 to 176 °C	–	–	COC(=O)CCP(=O)(O)C(CC(C)C)NC(=O)[C@@H](N)CCO (stereo partly shown) [Compound 3]	–	–
229 ± 40 µM	228 ± 10 µM	180 to 185 °C	–	–	CSCC[C@H](N)C(=O)NC(CCc1ccccc1)P(=O)(O)CCC(=O)O (stereo partly shown) [Compound 4]	–	–
3620 ± 433 µM	1040 ± 102 µM	218 to 222 °C	–	–	CSCC[C@H](N)C(=O)NC(CC(C)C)P(=O)(O)CCC(=O)O (stereo partly drawn) [Compound 5, 3-[(1-((S)-2-Amino-4-(methylthio)butanamido)-3-methylbutyl)phosphinyl]propanoic acid]	–	–
175 ± 3 µM	878 ± 70 µM	126 to 128 °C	–	–	COC(=O)CCP(=O)(O)C(CCc1ccccc1)NC(=O)[C@@H](N)Cc1ccc(-c2ccccc2)cc1 (stereo partly drawn) [Compound 6, Methyl 3-[(1-((S)-3-([1,1′-biphenyl]-4-yl)-2-aminopropanamido)-3-phenylpropyl)phosphinyl]-propanoate]	–	–
507 ± 31 µM	797 ± 76 µM	124 to 126 °C	–	–	COC(=O)CCP(=O)(O)C(CC(C)C)NC(=O)[C@@H](N)Cc1ccc(C(=O)c2ccccc2)cc1 (stereo partly drawn) [Compound 9, Methyl 3-[(1-((S)-2-amino-3-(4-benzoylphenyl)propanamido)-3-methylbutyl)phosphinyl]-propanoate]	–	–
–	–	–	–	860 µM	CC(C)C[C@H](N)C(=O)Nc1ccc([N+](=O)[O-])cc1 [L-Leu-pNA, L-leucine-p-nitroanilide]	770 µM	550 µM
